From US20230286973A1, “PROTEIN SECRETION INHIBITORS” (KEZAR LIFE SCIENCES, priority 2020, published 2023)
pEC50, pIC50: −log10 of the molar value. Values joined by “and” are separate entries in the source; they are usually repeats but may differ in a detail not shown here. Equal entries are not always repeated. Where two headings read alike, the source gives them in different places.

What was measured:
[1] = test system: TNFα-FL/Gaussia Luciferase; test: Dox Induced TNFα-FL-Gluc Assay; format: cell-based; conditions: for pIC50: 24 hr Dox induction, 293FRT/TO cells, read-out: 24 hr Dox Inducible TNFaFLGluc 293FRT/TO: Mean IC50; for 24 hr Dox Inducible TNFaFLGluc 293FRT/TO: TNF/PD1: ratio of TNFaFLGluc IC50 to PD1ssGluc IC50
Method in brief: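 Compound was added with doxycycline to cells plated a day earlier, incubating at 37° C under 5% CO2. The reporter line is 293 T-REx expressing a TNFα (1-233)–Gaussia luciferase fusion under tetracycline-regulated control.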

[2] = test system: PD1-ss+10aa/Gaussia Luciferase; test: Dox-Induced PD1-ss-Gluc Assay; format: cell-based; conditions: 24 hr Dox induction, 293FRT/TO cells, read-out: 24 hr Dox Inducible PD1ssGluc 293FRT/TO: Mean IC50
Method in brief: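 Compounds were added in DMSO/media with doxycycline and incubated at 37 °C, 5% CO2, on 293 T-REx cells plated one day earlier. These cells stably express, under tetracycline-regulated control, a Gaussia luciferase fused to the PD1 signal peptide plus 10 residues. Structures drawn without stereochemistry were tested as stereoisomer mixtures.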

[3] = test system: multiple myeloma cell line NCI-H929; test: H929 Cell Viability Assay; format: cell-based, human; conditions: NCI-H929 cells, Celltiter-Glo
Method in brief: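 Luminescent CellTiter-Glo read-out of viability after a 48 h exposure (37° C, 5% CO2) of NCI-H929 myeloma cells to compound dilutions in RPMI 1640 plus 10% FBS. Data for structures drawn without stereochemistry refer to stereoisomer mixtures.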

[4] = test system: multiple myeloma cell line U266B1; test: U266 Cell Viability Assay; format: cell-based, human; conditions: U266B1 cells, Celltiter-Glo
Method in brief: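 CellTiter-Glo luminescence was read after a 48 h compound exposure (37 °C, 5% CO2) of human U266B1 myeloma cells grown in 10% FBS-supplemented RPMI 1640. Data for structures shown without defined stereochemistry refer to stereoisomer mixtures.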

[5] = test system: HER3-ss+4aa/Gaussia Luciferase; test: Dox-Induced Her3-ss-Gluc Assay; format: cell-based; conditions: 24 hr Dox induction, 293FRT/TO cells, read-out: 24 hr Dox Inducible Her3(ss + 4)Gluc 293FRT/TO: Mean IC50
Method in brief: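 Compounds were diluted in DMSO/media containing doxycycline. They were added to Flp-In 293 T-REx cells plated the previous day, then incubated at 37 °C under 5% CO2. These cells stably express, under T-REx control, Gaussia luciferase fused to the HER3 signal sequence plus 4 amino acids.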

[6] = Liver Microsome Stability Assay (monkey); conditions: monkey liver microsomes, with NADPH, 1.0 uM compound
Description: (§1) Stability of a compound was assessed in the presence of liver microsomes from various sources—mouse, rat, monkey and human liver microsomes. 1.0 uM compound, 0.4% DMSO in 0.1 M Potassium Phosphate with 1.0 mg/mL liver microsomes, were incubated at 37° C. with or without 1 mM NADPH. The samples were quenched at 0, and 30 minutes.

[7] = test system: IL-2-FL/Gaussia Luciferase; test: Dox Induced IL2-FL-Gluc Assay; format: cell-based; conditions: for pIC50: 24 hr Dox induction, 293FRT/TO cells, read-out: 24 hr Dox Inducible IL2FLGluc 293FRT/TO: Mean IC50; for 24 hr Dox Inducible IL2FLGluc 293FRT/TO: IL2/PD1: ratio of IL2FLGluc IC50 to PD1ssGluc IC50
Method in brief: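 Compounds in DMSO/medium with doxycycline were applied to a 293 T-REx stable line expressing an IL-2 (aa 1-153)–Gaussia luciferase fusion under tetracycline-regulated control, cells seeded one day earlier; incubation at 37 °C, 5% CO2. Structures drawn without stereochemistry were tested as stereoisomer mixtures.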

[8] = Liver Microsome Stability Assay (rat); conditions: rat liver microsomes, with NADPH, 1.0 uM compound
Description: as §1

[9] = Liver Microsome Stability Assay (mouse); conditions: mouse liver microsomes, with NADPH, 1.0 uM compound
Description: as §1

[10] = Liver Microsome Stability Assay (human); conditions: human liver microsomes, with NADPH, 1.0 uM compound
Description: as §1

[11] = '<=>' given where both are I.A.

| SMILES | pIC50 ([1]; mean) | pIC50 ([2]; mean) | pEC50 ([3]; Homo sapiens, NCI-H929, 48 h) | pEC50 ([4]; Homo sapiens, U-266, 48 h) | pIC50 ([5]; mean) | Liver Microsome Stability (Multiple Species): Monkey - % Remaining after 30 min w/NADPH [6] | pIC50 ([7]; mean) | Liver Microsome Stability (Multiple Species): Rat - % Remaining after 30 min w/NADPH [8] | Liver Microsome Stability (Multiple Species): Mouse - % Remaining after 30 min w/NADPH [9] | Liver Microsome Stability (Multiple Species): Human - % Remaining after 30 min w/NADPH [10] | pIC50 [1] | pIC50 [2] | pIC50 [5] | pIC50 [7] | pEC50 ([3]; 48 hr) | pEC50 ([4]; 48 hr) | 24 hr Dox Inducible TNFaFLGluc 293FRT/TO: TNF/PD1 [1, 11] | 24 hr Dox Inducible IL2FLGluc 293FRT/TO: IL2/PD1 [7, 11] | 24 hr Dox Inducible TNFaFLGluc 293FRT/TO: TNF/PD1 [1] | 24 hr Dox Inducible IL2FLGluc 293FRT/TO: IL2/PD1 [7] |
| --- | --- | --- | --- | --- | --- | --- | --- | --- | --- | --- | --- | --- | --- | --- | --- | --- | --- | --- | --- | --- |
| O=C(Nc1nc([C@H]2CCCN2c2ccccc2)cs1)c1cccn1-c1cccc2cnccc12 [Compound C111, (R)-1-(isoquinolin-5-yl)-N-(4-(1-phenylpyrrolidin-2-yl)thiazol-2-yl)-1H-pyrrole-2-carboxamide] | 5.31 | 6.50 | < 4.60 | < 4.60 | 6.53 | 0.28% | 6.18 | 0.62% | 0.64% | 0.86% | – | – | – | – | – | – | 15.5 | 2.1 | – | – |
| O=C(Nc1nc([C@H]2CCCN2c2ccccc2)cs1)c1cccn1Cc1cccc(F)c1 [Compound C118, (R)-1-(3-fluorobenzyl)-N-(4-(1-phenylpyrrolidin-2-yl)thiazol-2-yl)-1H-pyrrole-2-carboxamide] | 5.01 | 6.14 | < 4.60 | < 4.60 | 6.14 | 26.9% | 6.00 | 33.5% | 48.1% | 59.7% | – | – | – | – | – | – | 13.6 | 1.4 | – | – |
| COc1ccc(O[C@H]2CCC[C@H](c3csc(NC(=O)c4cccn4Cc4ccncc4)n3)C2)nc1 [Compound E41, N-(4-((1S,3S)-3-((5-methoxypyridin-2-yl)oxy)cyclohexyl)thiazol-2-yl)-1-(pyridin-4-ylmethyl)-1H-pyrrole-2-carboxamide] | 5.81 | 6.52 | 5.11 | 4.84 | 6.24 | 0.34% | 6.27 | 0.61% | 0.41% | 0.33% | – | – | – | – | – | – | 5.2 | 1.8 | – | – |
| O=C(Nc1nc(/C=C/c2ccon2)cs1)c1cccn1Cc1ccncc1 [Compound B5, (E)-N-(4-(2-(isoxazol-3-yl)vinyl)thiazol-2-yl)-1-(pyridin-4-ylmethyl)-1H-pyrrole-2-carboxamide] | – | – | < 4.60 | < 4.60 | – | 0.47% | – | 0.69% | 1.26% | 0.87% | < 4.60 | 5.67 | < 4.60 | < 4.60 | – | – | – | – | >11.6 | 12 |

Now from value to molecule, other results behind:

| pIC50 ([1]; mean) | pIC50 ([2]; mean) | pEC50 ([3]; Homo sapiens, NCI-H929, 48 h) | pEC50 ([4]; Homo sapiens, U-266, 48 h) | pIC50 ([5]; mean) | Liver Microsome Stability (Multiple Species): Monkey - % Remaining after 30 min w/NADPH [6] | pIC50 ([7]; mean) | Liver Microsome Stability (Multiple Species): Rat - % Remaining after 30 min w/NADPH [8] | Liver Microsome Stability (Multiple Species): Mouse - % Remaining after 30 min w/NADPH [9] | Liver Microsome Stability (Multiple Species): Human - % Remaining after 30 min w/NADPH [10] | pIC50 [1] | pIC50 [2] | pIC50 [5] | pIC50 [7] | pEC50 ([3]; 48 hr) | pEC50 ([4]; 48 hr) | SMILES | 24 hr Dox Inducible TNFaFLGluc 293FRT/TO: TNF/PD1 [1, 11] | 24 hr Dox Inducible IL2FLGluc 293FRT/TO: IL2/PD1 [7, 11] | 24 hr Dox Inducible TNFaFLGluc 293FRT/TO: TNF/PD1 [1] | 24 hr Dox Inducible IL2FLGluc 293FRT/TO: IL2/PD1 [7] |
| --- | --- | --- | --- | --- | --- | --- | --- | --- | --- | --- | --- | --- | --- | --- | --- | --- | --- | --- | --- | --- |
| – | – | 6.41 | < 4.60 | – | 0.14% | – | 0.11% | 1.18% | 4.24% | 6.73 | 7.91 | 7.57 | 7.58 | – | – | CC(=O)Nc1ccc(N2CCC[C@@H]2c2csc(NC(=O)c3cccn3Cc3ccnc(F)c3)n2)cc1F [Compound A93, (R)-N-(4-(1-(4-acetamido-3-fluorophenyl)pyrrolidin-2-yl)thiazol-2-yl)-1-((2-fluoropyridin-4-yl)methyl)-1H-pyrrole-2-carboxamide] | – | – | 15.1 | 2.1 |
| – | – | 6.82 | < 4.60 | – | 27.3% and 25.8% | – | 48.3% and 54.8% | 81.1% and 81.8% | 43.9% and 46% | 6.96 and 7.20 and 7.01 | 8.24 and 8.33 and 8.31 | 8.02 and 8.07 and 8.13 | 7.98 and 8.17 and 8.06 | 6.83 and 6.78 | < 4.61 | O=C(Nc1nc([C@H]2CCCN2c2ccc(C(F)(F)F)cc2)cs1)c1cccn1Cc1ccnc(F)c1 [Compound A56, (R)-1-((2-fluoropyridin-4-yl)methyl)-N-(4-(1-(4-(trifluoromethyl)phenyl)pyrrolidin-2-yl)thiazol-2-yl)-1H-pyrrole-2-carboxamide] | – | – | 19.1 and 13.6 and 20 | 1.8 and 1.5 |
| – | – | 6.07 | < 4.60 | – | 13.5% | – | 13.6% | 2.18% | 19.3% | 6.28 | 7.56 | 7.32 | 7.37 | – | – | O=C(Nc1nc([C@H]2CCCN2c2ccc(OCCO)cc2)cs1)c1cccn1Cc1ccnc(F)c1 [Compound A134, (R)-1-((2-fluoropyridin-4-yl)methyl)-N-(4-(1-(4-(2-hydroxyethoxy)phenyl)pyrrolidin-2-yl)thiazol-2-yl)-1H-pyrrole-2-carboxamide] | – | – | 19.3 | 1.6 |
| – | – | 6.15 | < 4.60 | – | 44.9% | – | 50.2% | 36.3% | 67.5% | 6.48 | 7.79 | 7.52 | 7.40 | – | – | Cc1cc(C(=O)Nc2nc([C@H]3CCCN3c3ccc(NC(=O)N(C)C)cc3)cs2)n(Cc2ccnc(F)c2)c1 [Compound A163, (R)-N-(4-(1-(4-(3,3-dimethylureido)phenyl)pyrrolidin-2-yl)thiazol-2-yl)-1-((2-fluoropyridin-4-yl)methyl)-4-methyl-1H-pyrrole-2-carboxamide] | – | – | 20.3 | 2.5 |
